What is called EC50 is the concentration at which the effect is half-maximal.

EC50 data for 15 molecules are collected here from US20100144729A1, “COUMARIN DERIVATIVES” (priority 2007, published 2010).

In one experiment the target is T1, S1P1 (EDG-1) (Homo sapiens, UniProt P21453).
T1 construct: c-myc (N); expressed in transfected cells; homogenized membranes
The experiment can be described thus: GPCR activation assay measuring GTP [γ-35S] binding to membranes from CHO cells expressing human EDG receptors (S1P1). The experiment is classed as biochemical. Conditions: CHO cell membranes expressing human EDG-1, read-out: S1P-1 EC50. As for the experimental part:
A.1 In Vitro: GPCR Activation Assay Measuring GTP [γ-^35S] Binding to Membranes Prepared From CHO Cells Expressing Human EDG Receptors
S1P1 (EDG-1) GTP [γ-^35S] binding assay: Homogenized membranes are prepared from CHO cell clones stably expressing a human EDG-1 N-terminal c-myc tag. Cells are grown in suspension in two 850 cm^2 roller bottles for three or fours days before harvesting. The cells are centrifuged down, washed once with cold PBS, and resuspended in ≦20 ml of Buffer A (20 mM HEPES, pH 7.4, 10 mM EDTA, EDTA-free complete protease inhibitor cocktail [1 tablet/25 ml]). The cell suspension is homogenized on ice, using a Polytron homogenizer at 30000 rpm at three intervals of 15 seconds each. The homogenate is first centrifuged at 2000 rpm on a tabletop low speed centrifuge for 10 minutes. The supernatant, after passing through a cell strainer, is then re-centrifuged at 50,000×g for 25 minutes at 4° C. The pellet is resuspended into buffer B (15% glycerol, 20 mM HEPES, pH 7.4, 0.1 mM EDTA, EDTA-free complete protease inhibitor cocktail [1 tablet/10 ml]). Protein concentration of the preparation is determined using the BCA Protein Assay kit (Pierce) using BSA as standard. The membranes are aliquoted and kept frozen at −80° C.
Solutions of test compounds ranging from 10 mM to 0.01 nM are prepared in DMSO. S1P is diluted in 4% BSA solution as positive controls. The desired amount of membrane preparation is diluted with ice-cold assay buffer (20 mM HEPES, pH 7.4, 100 mM NaCl, 10 mM MgCl2, 0.1% Fatty acid-free BSA, 5 μM GDP) and vortexed well. 2 μl or less of compound is distributed into each well of a round-bottom 96-well polystyrene assay plate, followed by addition of 100 μl of diluted membranes (3-10 μg/well) and kept on ice until the addition of hot GTPγS. [^35S]-GTPγS is diluted 1:1000 (v/v) with cold assay buffer and 100 μl is added into each well. The reaction is carried out at room temperature for 90 minutes before the membranes are harvested onto Perkin-Elmer Unifilter® GF/B-96 filter plate using a Packard Filtermate Harvester. After several washes with wash buffer (20 mM HEPES, pH 7.4, 100 mM NaCl, 10 mM MgCl2), and a rinse with 95% ethanol, the filter is dried in a 37° C. oven for 30 minutes. MicroScint-20 is added and the plate sealed for scintillation counting on TopCount. EC50 values are obtained by fitting the GTP [γ-^35S] binding curves (raw data) with the dose response curve-fitting tool of GraphPad Prism. Six or twelve different concentrations are used to generate a concentration response curve (using three data points per concentration).

Another experiment deals with T2, S1P-2 (Homo sapiens, UniProt O95136).
T2 construct: expressed in transfected cells; host or cells: CHO cells under G418 selection
T2 sequence (O95136 whole entry): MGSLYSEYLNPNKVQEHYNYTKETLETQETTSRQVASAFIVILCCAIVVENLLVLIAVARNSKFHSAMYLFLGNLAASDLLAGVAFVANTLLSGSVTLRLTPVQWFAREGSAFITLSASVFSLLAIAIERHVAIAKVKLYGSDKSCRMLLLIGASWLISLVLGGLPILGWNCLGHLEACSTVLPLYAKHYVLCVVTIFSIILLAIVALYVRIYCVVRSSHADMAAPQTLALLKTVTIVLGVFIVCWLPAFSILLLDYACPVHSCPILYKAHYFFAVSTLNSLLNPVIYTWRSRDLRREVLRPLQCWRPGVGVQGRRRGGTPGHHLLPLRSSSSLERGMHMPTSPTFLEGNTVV
Description: FLIPR calcium flux assay, S1P-2. The experiment is classed as cell-based. To be noted: CHO cells expressing S1P receptor. As to the method: (§1) Compounds of the invention are tested for agonist activity on S1P1, S1P3, S1P5, and […] with a FLIPR calcium flux assay. Briefly, CHO cells expressing an S1P receptor are maintained in F-12K medium (ATCC), containing 5% FBS, with 500 ug/ml of G418. Prior to the assay, the cells are plated in 384 black clear bottom plates at the density of 10,000 cells/well/25 ? l in the medium of F-12K containing 1% FBS. The second day, the cells are washed three times (25 μl/each) with washing buffer. About 25 μl of dye are added to each well and incubated for 1 hour at 37° C. and 5% CO2. The cells are then washed four times with washing buffer (25 μl/each). The calcium flux is assayed after adding 25 μl of SEW2871 (published by Rosen et al., used as reference) solution to each well of cells. The same assay is performed with cells expressing each of the different S1P receptors. Titration in the FLIPR calcium flux assay is recorded over a 3-minute interval, and quantitated as maximal peak height percentage response relative to S1P-1 activation. The compounds of the invention are active in this assay at a concentration of from 10^−12 and 3.10^−[…]. For example example 13 as an EC50 92 nm for S1P-1 and an EC50>1 um for all the other isoforms (S1P-2, S1P-3, S1P-4, S1P-5).

In the next experiment the target is T3, S1P-4 (Homo sapiens, UniProt O95977).
T3 construct: expressed in transfected cells; host or cells: CHO cells under G418 selection
T3 sequence (O95977 1-384): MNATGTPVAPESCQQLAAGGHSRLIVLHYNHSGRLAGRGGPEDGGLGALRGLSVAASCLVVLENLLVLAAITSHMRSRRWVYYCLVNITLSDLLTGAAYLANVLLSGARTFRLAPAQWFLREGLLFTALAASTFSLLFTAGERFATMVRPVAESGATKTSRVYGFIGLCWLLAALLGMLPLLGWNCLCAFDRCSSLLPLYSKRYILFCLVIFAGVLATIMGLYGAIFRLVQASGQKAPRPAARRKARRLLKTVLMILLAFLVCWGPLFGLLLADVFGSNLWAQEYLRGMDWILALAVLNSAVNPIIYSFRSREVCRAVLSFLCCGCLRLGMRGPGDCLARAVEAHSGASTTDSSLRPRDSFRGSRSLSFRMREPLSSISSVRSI
Description: FLIPR calcium flux assay, S1P-4. It counts as cell-based. To be noted: CHO cells expressing S1P receptor. As for the experimental part: as §1
For orientation: Calcium flux is commonly read through the fluorescence of an indicator in the cells.

Another experiment concerns the target T4, S1P-5 (Homo sapiens, UniProt Q9H228).
T4 construct: expressed in transfected cells; host or cells: CHO cells under G418 selection
The experiment can be described thus: FLIPR calcium flux assay, S1P-5. The experiment is classed as cell-based. Conditions: CHO cells expressing S1P receptor. As to the method: as §1

The target of the next experiment is T5, S1P-3 (Homo sapiens, UniProt Q99500).
T5 construct: expressed in transfected cells; host or cells: CHO cells under G418 selection
T5 sequence (Q99500 whole entry): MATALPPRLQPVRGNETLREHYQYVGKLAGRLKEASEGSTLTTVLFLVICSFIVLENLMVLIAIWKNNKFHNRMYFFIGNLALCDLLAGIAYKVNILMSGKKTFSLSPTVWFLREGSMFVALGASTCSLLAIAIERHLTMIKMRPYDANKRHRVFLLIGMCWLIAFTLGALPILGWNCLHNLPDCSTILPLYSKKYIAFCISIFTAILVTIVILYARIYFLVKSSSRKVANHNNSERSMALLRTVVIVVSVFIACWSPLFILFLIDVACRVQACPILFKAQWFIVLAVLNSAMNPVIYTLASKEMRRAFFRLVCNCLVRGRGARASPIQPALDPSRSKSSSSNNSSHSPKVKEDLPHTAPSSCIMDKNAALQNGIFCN
The experiment can be described thus: FLIPR calcium flux assay, S1P-3. To be noted: CHO cells expressing S1P receptor. The experiment is classed as cell-based. As for the experimental part:
as §1

The next experiment concerns the target T6, S1P-1 (Homo sapiens, UniProt P21453).
T6 construct: expressed in transfected cells; host or cells: CHO cells under G418 selection
Description: FLIPR calcium flux assay, S1P-1. It counts as cell-based. To be noted: CHO cells expressing S1P receptor. As for the experimental part: as §1

T1 sequence (P21453 whole entry): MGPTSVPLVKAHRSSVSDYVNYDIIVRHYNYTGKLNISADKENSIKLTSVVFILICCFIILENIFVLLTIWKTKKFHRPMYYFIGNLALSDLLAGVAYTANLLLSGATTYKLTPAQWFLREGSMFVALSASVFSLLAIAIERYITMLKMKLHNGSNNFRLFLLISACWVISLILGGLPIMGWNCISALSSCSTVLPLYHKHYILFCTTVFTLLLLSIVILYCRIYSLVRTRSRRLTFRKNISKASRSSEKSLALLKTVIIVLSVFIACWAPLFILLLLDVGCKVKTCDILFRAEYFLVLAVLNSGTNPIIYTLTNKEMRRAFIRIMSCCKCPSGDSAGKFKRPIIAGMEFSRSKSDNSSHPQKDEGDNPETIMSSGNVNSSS
T4 sequence (Q9H228 whole entry): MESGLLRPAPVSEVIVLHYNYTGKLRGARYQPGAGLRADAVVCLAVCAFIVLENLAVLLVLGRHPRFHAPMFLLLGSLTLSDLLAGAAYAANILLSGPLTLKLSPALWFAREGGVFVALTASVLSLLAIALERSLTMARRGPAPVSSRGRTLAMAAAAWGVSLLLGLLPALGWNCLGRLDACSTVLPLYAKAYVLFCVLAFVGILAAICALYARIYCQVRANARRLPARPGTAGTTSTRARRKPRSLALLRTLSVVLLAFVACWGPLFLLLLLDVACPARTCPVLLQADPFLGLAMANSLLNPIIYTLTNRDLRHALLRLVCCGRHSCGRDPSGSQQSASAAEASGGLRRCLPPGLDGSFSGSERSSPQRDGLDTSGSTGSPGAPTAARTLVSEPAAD
T6 sequence (P21453 whole entry): as the sequence (P21453 whole entry) above

Consider `CCOc1ccc2cc(C(=O)Nc3ccc([C@H]4CCCN4)cc3F)c(=O)oc2c1OCC` [Example 89], for which the EC50 at S1P1 (EDG-1) is 12.8 nM.

With `COc1ccc2cc(C(=O)Nc3ccc(C4CCCCN4)cc3)c(=O)oc2c1OC(C)C` (single isomer, unassigned) [Example 23], the EC50 at S1P1 (EDG-1) came out at 75.5 nM.

For `Cc1cc([C@H]2CCCN2)ccc1NC(=O)c1cc2ccc(OC(C)C)c(OC(C)C)c2oc1=O` [Example 82], at S1P1 (EDG-1), the half-maximal effective concentration (EC50) turned out to be 2.4 nM.

Take `CCOc1c(OC)ccc2cc(C(=O)Nc3ccc([C@H]4CCCN4)cc3)c(=O)oc12` [Example 8]: the EC50 on S1P1 (EDG-1) came out at 7.5 nM.

For `CCOc1c(OC)ccc2cc(C(=O)Nc3ccc(C4CNCCN4)cc3)c(=O)oc12` (single isomer, unassigned) [Example 53], the concentration giving a half-maximal response (EC50) on S1P1 (EDG-1) came to 4.6 nM.

For `COc1ccc2cc(C(=O)Nc3ccc([C@H]4CCCN4)c(F)c3)c(=O)oc2c1C` [Example 72], at S1P1 (EDG-1), the EC50 amounted to 1.8 nM.

Take `CCCc1c(OC)ccc2cc(C(=O)Nc3ccc([C@H]4COCCN4)cc3)c(=O)oc12` [Example 27]: the EC50 on S1P1 (EDG-1) came out at 0.2 nM.

As to `CCc1c(OC)ccc2cc(C(=O)Nc3ccc(C4CNCCN4)cc3)c(=O)oc12` (single isomer, unassigned) [Example 44], the EC50 on S1P1 (EDG-1) amounted to 0.2 nM.

For the molecule `CCCc1c(OC)ccc2cc(C(=O)Nc3ccc(C4CNCCN4)cc3)c(=O)oc12` (racemic) [Example 43], the EC50 at S1P1 (EDG-1) came to 0.1 nM.

For `CCCc1c(OC)ccc2cc(C(=O)Nc3ccc(C4CCCN4)cc3)c(=O)oc12` (stereo not shown) [Example 1, 7-Methoxy-2-oxo-8-propyl-2H-chromene-3-carboxylic acid (4-pyrrolidin-2-yl-phenyl)-amide], on S1P1 (EDG-1), the EC50 was 0.1 nM.

`CCCc1c(OC)ccc2cc(C(=O)Nc3ccc(C4CCCN4C)cc3)c(=O)oc12` (racemic) [Example 13]: the EC50 at S1P-2 was greater than 1000 nM; on S1P-4 it was greater than 1000 nM; at S1P-5, greater than 1000 nM; on S1P-3, greater than 1000 nM; on S1P-1, 92 nM.

Consider `COc1ccc2cc(C(=O)Nc3ccc([C@H]4COCCN4)c(C)c3)c(=O)oc2c1OC(C)C` [Example 90], for which the EC50 at S1P1 (EDG-1) was 6.2 nM.

As to `COc1ccc2cc(C(=O)Nc3cccc([C@H]4COCCN4)c3)c(=O)oc2c1OC(C)C` [Example 96], the concentration giving a half-maximal response (EC50) at S1P1 (EDG-1) is 2.8 nM.

Turning to `COc1ccc2cc(C(=O)Nc3ccc(C4CNCCO4)cc3)c(=O)oc2c1OC(C)C` (single isomer, unassigned) [Example 41], on S1P1 (EDG-1), the concentration for a half-maximal effect (EC50) turned out to be 2.9 nM.

Take `CCc1c(OC)ccc2cc(C(=O)Nc3ccc([C@H]4CCCN4)cc3C)c(=O)oc12` [Example 62]: on S1P1 (EDG-1), the EC50 came to 0.5 nM.
